From patent US5120735A, “Antifungal composition” (Kaken Pharmaceutical Co., Ltd., priority 1987, dated 1992)

How the values were obtained:
[1] = test system: Candida albicans MTU 12021; experiment: Agar dilution MIC, single and combined use; type: cell-based; conditions: Compound 1 combined with non-azole agents; Table 4
[2] = test system: Candida albicans MTU 12021; experiment: Checker board method, combined use of Compound 1 with miconazole or ketoconazole; type: cell-based; also: key: +: Growth observed; -: No growth observed
Experimental: (§1) 1 ml of each drug solution diluted twice was introduced into a sterilized Petri dish, and 8 ml of Sabouraud agar medium was added to prepare a agar plate. Thus, a series of agar plates for the combinations having various concentrations were prepared.
(§2) Candida albicans MTU 12021 strain cultured on a Sabouraud agar medium for 24 hours, was suspended in a saline, and a cells suspension having a concentration of 2×10^6 spores/ml was prepared by counting the number of spores by a hemacytometer. Then, 50 μl of the cells suspension was inoculated to the above agar plates by means of a microplanter (manufactured by Sakuma Seisakusho). The inoculated agar plates were cultured at 37° C. for 48 hours, whereupon the presence or absence of the growth of the strain was examined.
(§3) Culture medium: Sabouraud agar medium
(§4) Culturing condition: 37° C. for 48 hours
(§5) Strain used: Candida albicans MTU 12021

[3] = test system: Candida albicans MTU 12021; experiment: Agar dilution MIC, single and combined use; type: cell-based; conditions: Candida albicans, MTU12021; single use; Sabouraud agar, 37° C., 48 hours; read-out: Minimum Inhibitory Concentration (MIC)
Experimental: (1) The effects of the combined use of Compound 1 with various imidazole antifungal agents against Candida albicans MTU 12021 strain were examined as follows. […] Then, distilled water containing 0.1% by weight of Tween 80 was added thereto to obtain drug solutions having a concentration of from 1 to 1,000 μg/ml.
as §1, §2, §3, §4, §5

[4] = test system: Candida albicans MTU 12021; experiment: Disk method (growth inhibition ring); type: cell-based
Experimental: (3) The effects of the combined use of Compound 1 with miconazole or ketoconazole were examined by a disk method.
Candida albicans MTU 12021 stain was mixed with a Sabouraud agar medium to have a concentration of 5×10^4 spores/ml, and 10 ml thereof was poured into a sterilized Petri dish to obtain an inoculated agar plate.
50 mg of each of Compound 1, miconazole and ketoconazole was impregnated to a disk (Toyo Filter paper of 8 mm in diameter), and the disk was placed on the inoculated agar plate, followed by culturing at 37° C. for 96 hours, whereupon the synergistic effects were evaluated based on the growth inhibition ring thereby appeared.

[5] = test system: Candida albicans MTU 12021; experiment: Influence of combined use of Compound 1 with miconazole over the growth curve; type: cell-based; conditions: 24 and 48 hours, FIG. 1
Experimental: Upon expiration of 24 hours and 48 hours, 0.1 ml of the culture medium was sampled and spread on a Sabouraud agar plate containing 0.5% of yeast extract, followed by culturing at 37° C. for 48 hours. Then, the number of colonies were counted to determine the number of survived fungi.

ICR male mice = experiment: Acute toxicity, oral, mice; type: in vivo; conditions: up to 5,000 mg/kg, ICR male mice of 5 weeks old
Source text: To examine the acute toxicity of the arylmethylamine antifungal agents used in the composition of the present invention, Compounds 1 and 2 were selected, and they were, respectively, suspended in 0.5% methyl cellulose and orally administered to ICR male mice of 5 weeks old (body weight: 26-28 g) at a dose corresponding to the body weight.

CN(Cc1ccc(C(C)(C)C)cc1)Cc1cccc2ccccc12 [Compound 1, N-4-tert-butylbenzyl-N-methyl-1-naphthalenemethylamine]
synergistic effects of combined use with non-azole antifungal agents [1]: no synergistic effects were observed | Growth ([2]; Compound 1 0.39 μg/ml, ketoconazole 0): + | Growth ([2]; Compound 1 0.78 μg/ml, ketoconazole 0): + | Growth ([2]; Compound 1 1.56 μg/ml, ketoconazole 0): + | Growth ([2]; Compound 1 3.13 μg/ml, ketoconazole 0): + | Growth ([2]; Compound 1 3.13 μg/ml, miconazole 0): + | Growth ([2]; Compound 1 12.5 μg/ml, ketoconazole 0): + | Growth ([2]; Compound 1 12.5 μg/ml, miconazole 0): + | Growth ([2]; Compound 1 25 μg/ml, ketoconazole 0): + | Growth ([2]; Compound 1 25 μg/ml, miconazole 0): + | Growth ([2]; Compound 1 50 μg/ml, ketoconazole 0): + | Growth ([2]; Compound 1 50 μg/ml, miconazole 0): + | Growth ([2]; Compound 1 100 μg/ml, ketoconazole 0): + | Growth ([2]; Compound 1 100 μg/ml, miconazole 0): + | Growth ([2]; Compound 1 0.39 + ketoconazole 0.1 μg/ml): + | Growth ([2]; Compound 1 0.39 + ketoconazole 0.2 μg/ml): + | Growth ([2]; Compound 1 0.39 + ketoconazole 0.39 μg/ml): + | Growth ([2]; Compound 1 0.39 + ketoconazole 0.78 μg/ml): + | Growth ([2]; Compound 1 0.39 + ketoconazole 1.56 μg/ml): + | Growth ([2]; Compound 1 0.39 + ketoconazole 3.13 μg/ml): + | Growth ([2]; Compound 1 0.39 + ketoconazole 12.5 μg/ml): + | Growth ([2]; Compound 1 0.39 + ketoconazole 25 μg/ml): - | Growth ([2]; Compound 1 0.39 + ketoconazole 50 μg/ml): - | Growth ([2]; Compound 1 0.39 + ketoconazole 100 μg/ml): - | Growth ([2]; Compound 1 0.78 + ketoconazole 0.1 μg/ml): + | Growth ([2]; Compound 1 0.78 + ketoconazole 25 μg/ml): - | Growth ([2]; Compound 1 0.78 + ketoconazole 50 μg/ml): - | Growth ([2]; Compound 1 0.78 + ketoconazole 100 μg/ml): - | Growth ([2]; Compound 1 1.56 + ketoconazole 0.1 μg/ml): + | Growth ([2]; Compound 1 1.56 + ketoconazole 25 μg/ml): - | Growth ([2]; Compound 1 1.56 + ketoconazole 50 μg/ml): - | Growth ([2]; Compound 1 1.56 + ketoconazole 100 μg/ml): - | Growth ([2]; Compound 1 3.13 + ketoconazole 0.1 μg/ml): + | Growth ([2]; Compound 1 3.13 + ketoconazole 25 μg/ml): - | Growth ([2]; Compound 1 3.13 + ketoconazole 50 μg/ml): - | Growth ([2]; Compound 1 3.13 + ketoconazole 100 μg/ml): - | Growth ([2]; Compound 1 3.13 + miconazole 0.39 μg/ml): + | Growth ([2]; Compound 1 3.13 + miconazole 0.78 μg/ml): + | Growth ([2]; Compound 1 3.13 + miconazole 1.56 μg/ml): + | Growth ([2]; Compound 1 3.13 + miconazole 3.13 μg/ml): + | Growth ([2]; Compound 1 3.13 + miconazole 12.5 μg/ml): + | Growth ([2]; Compound 1 3.13 + miconazole 25 μg/ml): + | Growth ([2]; Compound 1 3.13 + miconazole 50 μg/ml): - | Growth ([2]; Compound 1 3.13 + miconazole 100 μg/ml): - | Growth ([2]; Compound 1 6.25 + ketoconazole 0.1 μg/ml): + | Growth ([2]; Compound 1 6.25 + ketoconazole 25 μg/ml): - | Growth ([2]; Compound 1 6.25 + ketoconazole 50 μg/ml): - | Growth ([2]; Compound 1 6.25 + ketoconazole 100 μg/ml): - | Growth ([2]; Compound 1 6.25 + miconazole 0.39 μg/ml): + | Growth ([2]; Compound 1 6.25 + miconazole 0.78 μg/ml): + | Growth ([2]; Compound 1 6.25 + miconazole 1.56 μg/ml): + | Growth ([2]; Compound 1 6.25 + miconazole 3.13 μg/ml): + | Growth ([2]; Compound 1 6.25 + miconazole 12.5 μg/ml): + | Growth ([2]; Compound 1 6.25 + miconazole 25 μg/ml): + | Growth ([2]; Compound 1 6.25 + miconazole 50 μg/ml): - | Growth ([2]; Compound 1 6.25 + miconazole 100 μg/ml): - | Growth ([2]; Compound 1 12.5 + ketoconazole 0.1 μg/ml): + | Growth ([2]; Compound 1 12.5 + ketoconazole 25 μg/ml): - | Growth ([2]; Compound 1 12.5 + ketoconazole 50 μg/ml): - | Growth ([2]; Compound 1 12.5 + ketoconazole 100 μg/ml): - | Growth ([2]; Compound 1 12.5 + miconazole 0.39 μg/ml): + | Growth ([2]; Compound 1 12.5 + miconazole 0.78 μg/ml): + | Growth ([2]; Compound 1 12.5 + miconazole 50 μg/ml): - | Growth ([2]; Compound 1 12.5 + miconazole 100 μg/ml): - | Growth ([2]; Compound 1 25 + ketoconazole 0.1 μg/ml): + | Growth ([2]; Compound 1 25 + ketoconazole 25 μg/ml): - | Growth ([2]; Compound 1 25 + ketoconazole 50 μg/ml): - | Growth ([2]; Compound 1 25 + ketoconazole 100 μg/ml): - | Growth ([2]; Compound 1 25 + miconazole 0.39 μg/ml): + | Growth ([2]; Compound 1 25 + miconazole 0.78 μg/ml): + | Growth ([2]; Compound 1 25 + miconazole 50 μg/ml): - | Growth ([2]; Compound 1 25 + miconazole 100 μg/ml): - | Growth ([2]; Compound 1 50 + ketoconazole 0.1 μg/ml): + | Growth ([2]; Compound 1 50 + ketoconazole 25 μg/ml): - | Growth ([2]; Compound 1 50 + ketoconazole 50 μg/ml): - | Growth ([2]; Compound 1 50 + ketoconazole 100 μg/ml): - | Growth ([2]; Compound 1 50 + miconazole 0.39 μg/ml): + | Growth ([2]; Compound 1 50 + miconazole 0.78 μg/ml): + | Growth ([2]; Compound 1 50 + miconazole 50 μg/ml): - | Growth ([2]; Compound 1 50 + miconazole 100 μg/ml): - | Growth ([2]; Compound 1 100 + ketoconazole 0.1 μg/ml): + | Growth ([2]; Compound 1 100 + ketoconazole 25 μg/ml): - | Growth ([2]; Compound 1 100 + ketoconazole 50 μg/ml): - | Growth ([2]; Compound 1 100 + ketoconazole 100 μg/ml): - | Growth ([2]; Compound 1 100 + miconazole 0.39 μg/ml): + | Growth ([2]; Compound 1 100 + miconazole 0.78 μg/ml): + | Growth ([2]; Compound 1 100 + miconazole 50 μg/ml): - | Growth ([2]; Compound 1 100 + miconazole 100 μg/ml): - | MIC [3]: > 100 mg/L | effect of combined use with miconazole on inhibitory ring ([4]; Compound 1 disk on periphery of incomplete inhibitory ring of miconazole disk, FIG. 2): a portion of the incomplete inhibitory ring is completely inhibited | effects of combined use, Compound 1 with ketoconazole ([4]; FIG. 3): remarkable effects of the combined use | influence over growth curve [5]: fungistatic or fungicidal effects were enhanced | death (ICR male mice): no instance of death
